Like-named read-outs stand apart in the source and are kept apart here. Each block holds one compound with its values, some of them ahead of it.
Tests used:
[1] = in vitro
Experimental: The PAMPA-BBB assay was conducted according to the methodology followed by Di et al., with some modifications as described below ([15]). First, the BBB solution was prepared by dissolving 8 mg of PBL and 4 mg of cholesterol in 600 μl of n-dodecane. The initial donor solution was prepared by mixing 1 ml of extract (10 mg ml^−1 in EtOH) with 1 ml of buffer (PBS, pH = 7.4, 10 mM). The filter membrane of the donor plate was carefully coated with 5 μl of BBB solution. The acceptor plate was filled with 350 μl of buffer, and the donor plate was carefully assembled over the acceptor plate like a “sandwich.” Finally, the donor plate was filled with 350 μl of donor solution, covered, and incubated for 4 h at 37°C in the dark. After incubation time, 300 μl of the solution was taken from both plates, transferred to separate vials, and dried in the SpeedVac system at 40°C and 13 mbar pressure. Dried acceptor and donor solution were dissolved in 50 μl of pure EtOH before subjecting to UHPLC-Q-TOF-MS analysis. Permeability across in vitro BBB of the bioactive compound was measured according to Equation (1) ([25]), with some modifications in concentration rates.
(1) Pe=-ln[1-CA(t)/Ce]/A^*(1/VD+1/VA)^*t
Cequilibrium was calculated according to the following equation ([2]):
(2) Cequilibrium=[CD(t)*VD+CA(t)*VA]/(VD+VA)

[2] = cited from earlier work
[3] = ref PubChem database, cited from earlier work
[4] = PAMPA, pH 7.4, PAMPA-BBB log Pe (cm s−1)
[5] = compounds from Ginkgo biloba L. extract, ref Könczöl et al. ([69])
[6] = compounds of RSFE extract, octanol-water partition coefficient
[7] = PAMPA, pH 7.4, PAMPA-BBB log Pe (cm s−1), compound within ASFE extract, 4 h, 37°C, PBS pH 7.4
[8] = PAMPA, pH 7.4, PAMPA-BBB log Pe (cm s−1), compound within KD extract, 4 h, 37°C, PBS pH 7.4
[9] = PAMPA, pH 7.4, PAMPA-BBB log Pe, compound within LPLE (Nothofagus pumilio, lenga PLE extract), N.D = not detected in acceptor
[10] = compounds identified in LPLE extract
[11] = compound within LPLE (Nothofagus pumilio, lenga PLE extract), classes based on Könczöl et al.
[12] = compound within RSFE extract, 4 h, 37°C, PBS pH 7.4

Compound: O=c1cc(-c2ccc(O)cc2)oc2cc(O)cc(O)c12 [Apigenin]
Papp [1, 4]: 263 nm/s
Cross BBB potential ([1]; compound within RSFE extract): ++ (log Pe > −5.5)
PAMPA-BBB logPe [2, 5]: −5.35

Compound: COc1cc(-c2oc3cc(O)cc(O)c3c(=O)c2O)ccc1O [Isorhamnetin]
Cross BBB potential ([1]; PAMPA): +++ (key: -: not detected in acceptor; +: log Pe > −6.5; ++: log Pe > −5.5; +++: log Pe > −4.5)
Papp [1, 4]: 490 nm/s
PAMPA-BBB logPe [2, 5]: −5.46
Log P [3, 6]: 1.9

Compound: O=c1c(O)c(-c2ccc(O)cc2)oc2cc(O)cc(O)c12 [Kaempferol]
Papp at 4 h [1, 7]: 22.9 nm/s
Papp at 4 h [1, 8]: 148 nm/s
Papp at 4 h [1, 9]: 214 nm/s
PAMPA-BBB logPe ([2]; PAMPA): −5.13
Log P [3, 10]: 1.9
Log P ([3]; compounds of ASFE extract): 1.9
Log P ([3]; compounds of KD extract): 1.9

Cross BBB potential [1, 11]: -
Compound: O=C(O)c1cc(O)c(O)c(Oc2c(O)c(=O)c3oc(O)c4cc(O)c(=O)c5oc(O)c2c3c45)c1 [Sanguisorbic acid dilactone]
Log P [3, 10]: −0.4
Log P ([3]; compounds of ASFE extract): −0.4

Cross BBB potential ([1]; compound within ASFE extract): -
Compound: COc1cc(/C=C/C=O)cc(OC)c1O [Sinapaldehyde]
Log P [3, 10]: 1.4
Log P ([3]; compounds of ASFE extract): 1.4

Compound: COc1cc(/C=C/C(=O)O)cc(OC)c1O [Sinapic acid]
Cross BBB potential ([1]; compound within ASFE extract): -
Cross BBB potential ([1]; compound within KD extract): -
Cross BBB potential ([1]; compound within T33 extract): -
Log P [3, 10]: 1.5
Log P ([3]; compounds of ASFE extract): 1.5
Log P ([3]; compounds of KD extract): 1.5
Log P ([3]; compounds of T33 extract): 1.5

Cross BBB potential ([1]; PAMPA): ++
Papp at 4 h [1, 4]: 45.7 nm/s
Compound: CC(C)c1cc2c(cc1O)[C@@]1(C)CCCC(C)(C)[C@@H]1CC2=O [Sugiol]
Log P [3, 6]: 5.6

Compound: COc1cc(C=O)cc(OC)c1O [Syringaldehyde]
Papp [1, 9]: 135 nm/s
Log P [3, 10]: 0.1
Log P ([3]; compounds of T33 extract): 1.1

Papp at 4 h [1, 9]: 1.45 nm/s
Cross BBB potential ([1]; compound within RSFE extract): -
Compound: COc1cc(C(=O)O)cc(OC)c1O [Syringic acid]
Log P [3, 10]: 1.0
Log P ([3]; compounds of ASFE extract): 1.0
Log P ([3]; compounds of KD extract): 1.0
Log P [3, 6]: 1.0

Compound: Oc1ccc(/C=C/c2cc(O)cc(O)c2)cc1 [Trans-resveratrol]
Cross BBB potential ([1]; PAMPA): -
Log P [3, 10]: 2.5
Log P ([3]; compounds of ASFE extract): 2.5

Cross BBB potential ([1]; PAMPA): ++
PAMPA-BBB log Pe (cm s−1) ([1]; PAMPA, 4 h, pH 7.4): −4.97 cm s−1
PAMPA-BBB log Pe ([1]; compound within LPLE (Nothofagus pumilio, lenga PLE extract), N.D = not detected in acceptor): −5.05 cm s−1
Compound: CCC(O)C1CC(C)C2(CC(=O)C3(C)C4=C(CCC32C)C2(C)CCC(=O)C(C)(CO)C2CC4)O1 [Triterpene*, (23S,24S)-17,23-Epoxy-24,29-dihydroxy-27-norlanost-8-ene-3,15-dione]
Log P [3, 10]: 3.6
Log P ([3]; compounds of ASFE extract): 3.6

Compound: COc1cc(C(=O)O)ccc1O [Vanillic acid]
Papp at 4 h [1, 7]: 21.4 nm/s
Papp at 4 h [1, 8]: 550 nm/s
Papp at 4 h [1, 9]: 13.5 nm/s
Cross BBB potential ([1]; compound within ASFE extract): + (log Pe > −6.5)
Cross BBB potential ([1]; compound within KD extract): +++ (log Pe > −4.5)
Cross BBB potential [1, 11]: + (log Pe > −6.5)
Log P [3, 10]: 1.4
Log P ([3]; compounds of ASFE extract): 1.4
Log P ([3]; compounds of KD extract): 1.4

Compound: COc1ccc2c3c1O[C@H]1C[C@@H](O)C=C[C@@]31CCN(C)C2 [galantamine, reference compound]
logPe (cm s^−1) ([2]; therapeutic drug for comparison, ref [70]): –5.35 ± 0.02 cm s^−1

Compound: O=C(O)c1ccc(O)cc1 [p-salycilic acid]
Cross BBB potential ([1]; compound within RSFE extract): +++ (log Pe > −4.5)
PAMPA-BBB log Pe (cm s−1) [1, 12]: −4.18 cm s−1
Cross BBB potential ([1]; compound within T33 extract): ++ (log Pe > −5.5)
PAMPA-BBB log Pe (cm s−1) ([1]; compound within T33 extract, 4 h, 37°C, PBS pH 7.4): −4.75 cm s−1
Log P [3, 6]: 1.6

Compound: Oc1ccc(/C=C/c2cc(O)cc3c2[C@@H](c2cc(O)cc(O)c2)[C@H](c2ccc(O)cc2)O3)cc1 [ε-Viniferin]
Cross BBB potential ([1]; compound within ASFE extract): -
Cross BBB potential [1, 11]: -
Log P [3, 10]: 5.4
Log P ([3]; compounds of ASFE extract): 5.4

Compound: Bersaldegenin-1,3,5-orthoacetate
Cross BBB potential ([1]; compound within KD extract): -
Log P ([3]; compounds of KD extract): 4.87

Cross BBB potential ([1]; PAMPA): ++
PAMPA-BBB log Pe (cm s−1) ([1]; PAMPA, 4 h, pH 7.4): −5.46 cm s−1
Compound: Caffeoylshikimic acid
Log P ([3]; compounds of T33 extract): 0.9

Compound: Desdimethyl-octahydro-iso- cohumulone
Cross BBB potential ([1]; compound within RSFE extract): +++ (log Pe > −4.5)
PAMPA-BBB log Pe (cm s−1) [1, 12]: −4.30 cm s−1
Log P [3, 6]: 3.8

Compound: Kalandaigremoside B
Cross BBB potential ([1]; compound within KD extract): -
Log P ([3]; compounds of KD extract): 7.2

Compound: Kalandaigremoside C
Cross BBB potential ([1]; compound within KD extract): -
Log P ([3]; compounds of KD extract): 7.2

Compound: Kalandaigremoside F
Cross BBB potential ([1]; compound within KD extract): -
Log P ([3]; compounds of KD extract): 7.2

Cross BBB potential ([1]; PAMPA): +++
PAMPA-BBB log Pe (cm s−1) ([1]; PAMPA, 4 h, pH 7.4): −3.96 cm s−1
Compound: Methydihydrojasmonic acid
Log P [3, 6]: 1.6

Cross BBB potential ([1]; PAMPA): ++
PAMPA-BBB log Pe (cm s−1) ([1]; PAMPA, 4 h, pH 7.4): −4.62 cm s−1
Compound: Notohamosine B
Log P [3, 6]: 5.6

Compound: Resibufagin
Cross BBB potential ([1]; compound within KD extract): -
Log P ([3]; compounds of KD extract): 2.4
